In patent publication US5431896A, “Microbial immunoregulant” (Merck & Co., Inc., priority 1992, dated 1995):
Where “and” joins values, the source holds several entries; their conditions need not be identical. Equal values may be shown once. Entries after “also recorded” stand apart in the source; their conditions may differ. Read-outs that look alike come from different tables or passages of the source.

Assays:
[1] = reputed; EPO Publication No. 0184162; cited from earlier work
mouse T lymphocytes = test: T-cell proliferation assay (ionomycin plus PMA induced T-cell stimulation, tritiated thymidine uptake); assay type: cell-based, C57B1/6 mice; conditions: for immunosuppressive activity by the T-cell proliferation assay: qualitative statement
Experimental: The principle of this assay is to measure the proliferation of mouse T lymphocytes stimulated with the combination of ionomycin plus PMA. A positive sample in this assay will inhibit T-cell proliferation, as indicated by reduced tritiated thymidine uptake.
Cells were pelleted by centrifugation at 1500 rpm for 8 minutes. Contaminating red cells were removed by treating the pellet with ammonium chloride lysing buffer (GIBCO) for 2 minutes at 4° C. Cold medium was added and cells were again centrifuged at 1500 rpm for 8 minutes. T lymphocytes were then isolated by separation of the cell suspension on nylon wool columns as follows: Nylon wool columns were prepared by packing approximately 4 grams of washed and dried nylon wool into 20 ml plastic syringes. The columns were sterilized by autoclaving at 250° F. for 30 minutes. Nylon wool columns were wetted with warm (37° C.) culture medium and rinsed with the same medium. Washed spleen cells resuspended in warm medium were slowly applied to the nylon wool. The columns were then incubated in an upright position at 37° C. for 1 hour. Non-adherent T lymphocytes were eluted from the columns with warm culture medium and the cell suspensions were spun as above.
The cell suspension was immediately distributed into 96 well flat-bottom microculture plates (Costar) at 200 μl/well. […] The proliferation of T lymphocytes was assessed by measurement of tritiated thymidine incorporation. After 44 hours of culturing, the cells were pulse-labelled with 2 μCi/well of tritiated thymidine (NEN, Cambridge, Mass.). After another 4 hours of incubation, cultures were harvested on glass fiber filters using a multiple sample harvester. Radioactivity of filter discs corresponding to individual wells was measured by standard liquid scintillation counting methods (Betacounter). Mean counts per minute of replicate wells were calculated and the results expressed as percent inhibition of tritiated thymidine uptake (proliferation) as follows: [formula]

Solubility = assay type: physicochemical; conditions: methanol

| Structure (SMILES) | potency relative to cyclosporin [1] [times] | inhibition at 0.01 µg/mL (mouse T lymphocytes; Mus musculus, T-lymphocyte, 48 h, read-out: inhibition of T-cell proliferation by standard) [%] | Solubility (Solubility) | IC50 (mouse T lymphocytes; Mus musculus, T-lymphocyte, 48 h, read-out: IC50 (inhibition of T-cell proliferation)) | inhibition at 0.00011 µg/mL (mouse T lymphocytes; Mus musculus, T-lymphocyte, L-687,819 0.11 ng/ml, 48 h) [%] | inhibition at 0.00026 µg/mL (mouse T lymphocytes; Mus musculus, T-lymphocyte, L-687,819 0.26 ng/ml, 48 h) [%] | inhibition at 0.00058 µg/mL (mouse T lymphocytes; Mus musculus, T-lymphocyte, L-687,819 0.58 ng/ml, 48 h) [%] | inhibition at 0.0013 µg/mL (mouse T lymphocytes; Mus musculus, T-lymphocyte, L-687,819 1.3 ng/ml, 48 h) [%] | inhibition at 0.0029 µg/mL (mouse T lymphocytes; Mus musculus, T-lymphocyte, L-687,819 2.9 ng/ml, 48 h) [%] | inhibition at 0.0044 µg/mL (mouse T lymphocytes; Mus musculus, T-lymphocyte, L-687,819 4.4 ng/ml, 48 h) [%] | inhibition at 0.0066 µg/mL (mouse T lymphocytes; Mus musculus, T-lymphocyte, L-687,819 6.6 ng/ml, 48 h) [%] | inhibition at 0.01 µg/mL (mouse T lymphocytes; Mus musculus, T-lymphocyte, L-687,819 10 ng/ml, 48 h, read-out: % Inhibition of T-cell proliferation) [%] | inhibition at 0.1 µg/mL (mouse T lymphocytes; Mus musculus, T-lymphocyte, L-687,819 100 ng/ml, 48 h) [%] | Inhibition of proliferation on addition of recombinant human IL2 (mouse T lymphocytes; addition of 50 units/ml recombinant human IL2) | immunosuppressive activity by the T-cell proliferation assay (mouse T lymphocytes) | immunosuppressive activity by the T-cell proliferation assay (mouse T lymphocytes; listed as minor component) |
| --- | --- | --- | --- | --- | --- | --- | --- | --- | --- | --- | --- | --- | --- | --- | --- | --- |
| C=CC[C@@H]1/C=C(\C)C[C@H](C)C[C@H](OC)[C@H]2O[C@@](O)(C(=O)C(=O)N3CCCC[C@H]3C(=O)O[C@H](/C(C)=C/[C@@H]3CC[C@@H](O)[C@H](OC)C3)[C@H](C)[C@@H](O)CC1=O)[C@H](C)C[C@@H]2OC [FK-506, reference compound] | 100 | 99 |  |  |  |  |  |  |  |  |  |  |  |  |  |  |
| CO[C@H]1C[C@@H](C)C/C(C)=C/[C@@H](C)C(=O)C[C@H](O)[C@@H](C)[C@@H](/C(C)=C/[C@@H]2CC[C@@H](O)[C@H](O)C2)OC(=O)[C@@H]2CCCCN2C(=O)C(=O)[C@]2(O)O[C@H]1[C@@H](OC)C[C@H]2C [L-687,819] |  |  | Solubility in methanol | 0.007 µg/mL and 9.17 nM | 9.5 | 9.1 | 0 | 0 | 0 | 15.9 | 51.3 | 76.1 | 98.8 | reversed | positive immunosuppressive activity; also recorded: positive inhibition of T-cell activation | shown to possess immunosuppressive activity |
